Consider 84 compounds from a melting point compilation (Tetko et al.; mined from patent text by program, amines drawn as free bases though some values may be those of a salt).

Consider `CCN(c1ccc(OCc2ccc(OC(F)(F)F)cc2)cc1)C1CCN(c2ccc(OC[C@H]3CCn4cc([N+](=O)[O-])nc4O3)cc2)CC1`, for which the melting point fell in the range of 95.2 to 97 °C. As for `CC1=Cc2c(cccc2-c2cccc3ccccc23)C1`, the figure is 143 °C. To `c1ccc(-c2ccc3c4c([nH]c3c2)CCNCC4)cc1` belongs 220 to 222 °C; to `CCOC(=O)C1=C(COCCCN(C)C)NC(C)=C(C(=O)OC)C1c1ccccc1Cl` (centres undefined), 77 to 78 °C; to `O=C(CCCCc1ccccc1)N[C@H](Cc1ccc(C(F)(F)F)cc1)[C@@H](O)c1ccc(F)cc1` (racemic), 152 to 153 °C. As for `O=c1c(-c2ccccc2)c[nH]n1-c1ccccn1`, the figure is 132 to 133 °C; as for `COc1cc2c(=O)c(Cc3cccnc3)cn3c4cc(Br)ccc4c(=O)c(c1)c23`, 247 to 249 °C.

Turning to `CC(C)(C)OC(=O)N[C@@H](CO)C(=O)N[C@@H](CCC(=O)OCc1ccccc1)C(=O)OCc1ccccc1`, the melting point was 93 to 95 °C. As for `OCC(COc1noc2ccc(Cl)cc12)NC(c1ccccc1)(c1ccccc1)c1ccccc1` (centres undefined), the figure is 142 to 144 °C; as for `CNc1nc(N)nc(-c2ccc(-c3ccccc3)cc2)n1`, 237 to 238 °C; as for `COc1ccc(/C=C/C(=O)Nc2ccc(C(=O)O)cc2)cc1OC`, 258 to 259 °C.

On to `COc1ccc2cc(C(N)=O)ccc2c1`, for which the melting point fell in the range of 224 to 226 °C.

Consider `CCCNC(=O)C=Cc1ccc2ccn(Cc3ccc(C(=O)O)cc3OC)c2c1`, for which the melting point lay within 210 to 212 °C. `CC(C)CS(=O)(=O)c1ccc(N)c(S(=O)(=O)CC(C)C)c1` had a melting point of 118 to 120 °C.

`COc1cc(C(=O)c2ccc(C(F)(F)F)cc2)ccc1OCc1ccccc1` gave a melting point of 101 °C.

`COC(=O)c1ccc(-c2cn(Cc3cccnc3)c3c2CCc2nc4c(nc2-3)C(C)(C)CCC4(C)C)cc1` came in with a melting point of 245 to 247 °C. In turn, `CCOC(=O)c1c(N2CCN(C(=O)c3cccs3)CC2)c2cccnc2n(CCCN(C)C)c1=O` gave a melting point of 84 to 94 °C. On to `Cc1ccc(Cc2cnc(NCC(O)COc3cccc(CN4CCCCC4)c3)[nH]c2=O)cn1` (centres undefined), for which the melting point lay in the range of 115 to 117 °C. As for `COc1ccc(-c2cnc(NC(=O)Cc3ccccc3)c(Cc3ccccc3)n2)cc1`, the figure is 198 to 202 °C; as for `NC(=O)Cc1cc(Oc2ccc3c(ccn3C(=O)Nc3ccc(N4CCNCC4)c(C(F)(F)F)c3)c2)ncn1`, 149 to 152 °C; as for `CC(C)(C)c1cc(Cn2c(=S)sc3ccccc32)cc(C(C)(C)C)c1O`, 148 to 150 °C. To `CN1CCN(S(=O)(=O)c2ccc3c(c2)C(=O)c2ccccc2C3=O)CC1` belongs 216 to 218 °C; to `CCCc1nn(-c2ccc(C(F)(F)F)cn2)cc1CCCOc1ccc(F)c(CC(=O)O)c1`, 111 to 112 °C. As for `CCC(C(=O)c1ccc(OCc2ccccc2)cc1)c1ccccc1` (centres undefined), the figure is 71 °C; as for `CCOC(=O)c1cn(Cc2ccc(-c3ccccc3-c3nnn[nH]3)cc2)c2sc(CC)c(NC(C)=O)c2c1=O`, 163 to 166 °C; as for `CC1(C)CCC(C)(C)c2cc(-c3cc(I)ccc3-c3ccccc3)ccc21`, 120 to 122 °C.

`CCC(=O)N1CCC(C(=O)OC2c3ccccc3C(=O)N2c2ccc3ccc(Cl)nc3n2)CC1` (centres undefined) had a melting point of 189 °C.

On to `O=C1NCN(c2ccccc2)C12CCCCC2`, for which the melting point was 193 to 195 °C. As for `OCC(O)CN1CCN(c2ccc(Cl)nn2)CC1` (centres undefined), the figure is 126 to 128 °C; as for `N#Cc1cc(Cl)[nH]c1-c1oc2ccccc2c1Cl`, 224 to 226 °C. As for `CCCCOC(=O)N1CCNCC1`, the figure is 98 °C; as for `C=CC(=O)N[C@@H](C=O)[C@@H](O)[C@H](O)[C@H](O)CO`, 124 to 125 °C. As for `CCCCN(C1CCCOc2ccccc21)S(=O)(=O)CC` (centres undefined), the figure is 62 to 65 °C. With `CC1(C)OCC(C(O)CNC(=O)CS(=O)(=O)Nc2ccc(F)c(C(F)(F)F)c2)O1` (centres undefined), the melting point is 144 to 146 °C. To `CON(C(=O)c1cn(C)nc1C(F)F)C(C)c1cccc(I)c1` (centres undefined) belongs 136 to 138 °C; to `Cn1cncc1C(c1cccs1)c1cccs1`, 78.5 to 80 °C. As for `COc1ccc(C2(C#Cc3ccc(Cl)cc3)CCC(=O)CC2)cc1OC1CCCC1`, the figure is 104 to 105 °C; as for `CCOc1ccc2c(c1)C(c1ccccc1Cl)(N(C)C)C(=O)N2S(=O)(=O)c1ccc(NC(=O)N(CC)CC)cc1OC` (centres undefined), 212 to 214 °C; as for `O=C(O)[C@@H]1C[C@@H](O)CN1C(=O)OCc1ccc([N+](=O)[O-])cc1`, 136 to 137 °C.

As for `Cc1ccccc1C(=O)Nc1ccc(C(=O)N2Cc3ccccc3Cc3ccccc32)c(C)c1`, the melting point was 112 to 114 °C. As for `O=C(O)/C=C1\CCc2c(F)cc(Cl)cc21`, the figure is 254 to 256 °C; as for `CC(=NO)c1nn(C)c2cc(Oc3ccc(Cl)cc3)ccc12`, 148 to 150 °C.

For `CCN(CC)CCOc1ccc2cc3ccc(OCCN(CC)CC)c(CN4C(=O)c5ccccc5C4=O)c3nc2c1CN1C(=O)c2ccccc2C1=O`, the melting point fell in the range of 242 to 244 °C. To `Cc1cc(C(C)c2ccccc2)c(O)c(-n2nc3ccc(Cl)cc3n2)c1` (centres undefined) belongs 113 to 115 °C; to `CN1CCC(=C2c3ccccc3Sc3ccc(S(=O)(=O)C(F)(F)F)cc32)CC1`, 125 to 128 °C; to `CN(C)c1c([N+](=O)[O-])cc(-c2nc(Cl)c(CC#N)n2Cc2ccccc2)cc1[N+](=O)[O-]`, 173 to 175 °C. The compound `NS(=O)(=O)c1sccc1C(F)=C(F)C(F)(F)F` had a melting point of 108 to 111 °C.

Consider `O[C@@H]1c2ccccc2CC[C@H]1N1CCC(O)(c2ccccc2)CC1` (relative stereo), for which the melting point was 184 °C. To `CC1=NC(NC(=O)Nc2cccc(C)c2)C(=O)N(CC(=O)NC(C)(C)C)c2c(C)cccc21` (centres undefined) belongs 243 to 244 °C; to `COC(=O)COc1cc(C(=O)N2CCOCC2)ccc1[N+](=O)[O-]`, 140 to 142 °C. As for `Cc1cc(O)c(C=O)c(C)c1Cl`, the figure is 90 to 92 °C; as for `CC(C)(C)OC(=O)N1CC2CN(Cc3ccccc3)CC(C1)O2`, 100 to 102 °C; as for `CC(=O)c1ccc(NS(C)(=O)=O)c(Oc2ccc(Cl)cc2Cl)c1`, 119 to 121 °C.

Regarding `COc1cc(OCc2ccccn2)ccc1/C=C/c1cc(/C=C/c2ccc3c(c2)OCO3)n[nH]1`, the melting point was 218 to 220 °C. As for `CCCCCCCCSc1nc(SCCCCCCCC)nc(-c2cc(C)c(O)c(C)c2)n1`, the figure is 75 to 76 °C; as for `Cc1cc(=O)c(C(=O)Nc2cccc(C)c2C)c(C)o1`, 174 to 176 °C. As for `CC(=O)N1c2ccccc2CC1c1ccccc1NC(=O)C(C)(C)C` (centres undefined), the figure is 184 to 186 °C; as for `Cc1ccc(NS(=O)(=O)c2cccc(C#N)c2)c2[nH]cc(C#N)c12`, 220 to 221 °C; as for `COc1cc(Cc2cnc(N)nc2N)cc(OC)c1C(C)(C)O`, 183 to 185 °C.

With `O=[N+]([O-])c1ccc(Cl)c(C2SCCS2)c1`, the melting point was 130 to 131 °C. To `CCCCC(=O)c1c(CN(CC)C(C)(C)C)nc2cc(OC)c(OC)cc2c1-c1ccc(OC)c(OC)c1` belongs 137 to 139 °C; to `COc1cc2c(cc1OC)C1(O)c3ccccc3CCN1C2=O` (centres undefined), 220 °C; to `CC(=O)C(Oc1cc(Cl)cc(C#N)c1)C(C)=O`, 105 to 108 °C. As for `O=C(Nc1ccccc1F)O[C@@H]1CN=C(c2ccccc2)O[C@H]1c1ccccc1` (racemic), the figure is 98 °C. In turn, `COc1c(C#C[Si](C)(C)C)cc(-n2ccc(=O)[nH]c2=O)cc1-c1ccc2cc(NS(C)(=O)=O)ccc2c1` registered a melting point of 175 to 178 °C. As for `C[N+](C)([O-])S(=O)(=O)c1ccc2c(c1)N(C1CN3CCC1CC3)c1ccccc1S2=O` (centres undefined), the figure is 130 °C; as for `COC(=O)CCCCCCCNC(=O)C(COS(C)(=O)=O)NS(=O)(=O)c1ccc(Cl)cc1` (racemic), 90 to 95 °C; as for `CC(=O)NNC(=N)C(Cl)(Cl)Cl`, 130 to 132 °C.

Turning to `Cc1cccc(OCCOc2cccc(C)c2)c1`, the melting point stood at 98 °C. To `CCCCCCCCCCCCc1ccc(C#Cc2c3ccccc3c(C#Cc3ccc(CCCCCCCCCCCC)cc3)c3ccccc23)cc1` belongs 111 to 113 °C; to `N#Cc1ccc(S(=O)(=O)N2CCCC2c2ccc(F)cc2)cc1` (racemic), 147 °C. To `Cc1cc(-c2cc3c(OC[C@@H](O)CN4CCC(c5ccc6ccccc6c5)CC4)cccc3o2)nn1C` belongs 155 to 157 °C; to `O=C(Cn1c(Cl)ccc1Cl)N=C1NCCN1`, 225 °C; to `NC(=O)C1CN(Cc2ccccc2)CC1O` (centres undefined), 128 °C. On to `O=C1Cc2cccc(Oc3ccc4ccccc4c3)c2N1`, for which the melting point fell in the range of 195 to 197 °C. As for `CCOC(=O)C1=Cc2cccc(S(N)(=O)=O)c2OCC1`, the figure is 197 to 198 °C; as for `CN(C)C=C1N=C(c2ccccc2Cl)c2cc(Cl)ccc2N(C)C1=O`, 199 to 200 °C; as for `CC(=O)Nc1ccc(OC2SCC(O)C(O)C2O)cn1` (centres undefined), 209 °C. As for `COc1ccc(-c2ccc3cnc(Nc4ccc(N5CCN(C)CC5)cc4OC)nn23)cn1`, the melting point lay in the range of 170 to 173 °C.

`CCOC(=O)c1ccc([N+](=O)[O-])c(O)c1Br` returned a melting point of 58 to 61 °C. As for `COc1ccc(CN(C)CCN(C)Cc2ccc(NC(=O)c3cccc4c(=O)c5cccc(OC)c5[nH]c34)cc2)cc1OC`, the figure is 170 °C; as for `CN1c2cscc2C(=O)N(Cc2ccccc2)c2ccccc21`, 137 to 138 °C. For `COc1ccccc1COc1ccc(S(=O)(=O)c2cnc(C)nc2Nc2c(C)cc(C)cc2C)cc1`, the melting point is 200 to 202 °C. Compound `Cc1ccc(-c2cc(OCC(=O)N3CCSCC3)c3c(C(F)(F)F)cccc3n2)cc1` displayed a melting point of 154 °C.

In general, melting point refers to the temperature of the solid-liquid transition.
